{
  "source": "patent US8192962B2",
  "about": "“Processes for detecting toxic substances” (Daikin Industries, Ltd., priority 2001, dated 2012)",
  "system": "Energy system protein genes",
  "test": "DNA chip mRNA expression in yeast, energy system protein genes (Table 4)",
  "type": "cell-based, Saccharomyces cerevisiae S288C",
  "summary_of_the_method": "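Values are treated/untreated fluorescence ratios from a whole-genome yeast DNA chip hybridized over 12 hours at 65° C with Cy3- or Cy5-labelled cDNA from poly(A) mRNA. Log-phase S288C yeast in YPD at 25° C had received a single toxic chemical for two hours, dosed to slow growth without killing.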",
  "data": [
    {"smiles": "CCCCCCCCCCCCOS(=O)(=O)[O-].[Na+]", "note": "[(18), sodium lauryl sulfate]", "values": [
      {"measurement": "The level of expressed mRNA in the presence of chemical substance/The level of expressed mRNA in the absence of chemical substance", "setting": "yeast gene YJR009C", "value": 1.3},
      {"measurement": "The level of expressed mRNA in the presence of chemical substance/The level of expressed mRNA in the absence of chemical substance", "setting": "yeast gene YJR048W", "value": 1.2},
      {"measurement": "The level of expressed mRNA in the presence of chemical substance/The level of expressed mRNA in the absence of chemical substance", "setting": "yeast gene YJR121W, cells incubated two hours with the chemical substance", "value": 1.4},
      {"measurement": "The level of expressed mRNA in the presence of chemical substance/The level of expressed mRNA in the absence of chemical substance", "setting": "yeast gene YJR155W", "value": 1.4},
      {"measurement": "The level of expressed mRNA in the presence of chemical substance/The level of expressed mRNA in the absence of chemical substance", "setting": "yeast gene YKL016C, cells incubated two hours with the chemical substance", "value": 1.7},
      {"measurement": "The level of expressed mRNA in the presence of chemical substance/The level of expressed mRNA in the absence of chemical substance", "setting": "yeast gene YKL060C, cells incubated two hours with the chemical substance", "value": 1.7},
      {"measurement": "The level of expressed mRNA in the presence of chemical substance/The level of expressed mRNA in the absence of chemical substance", "setting": "yeast gene YKL141W, cells incubated two hours with the chemical substance", "value": 1.8},
      {"measurement": "The level of expressed mRNA in the presence of chemical substance/The level of expressed mRNA in the absence of chemical substance", "setting": "yeast gene YKL148C, cells incubated two hours with the chemical substance", "value": 1.0},
      {"measurement": "The level of expressed mRNA in the presence of chemical substance/The level of expressed mRNA in the absence of chemical substance", "setting": "yeast gene YKR009C, cells incubated two hours with the chemical substance", "value": 2.5},
      {"measurement": "The level of expressed mRNA in the presence of chemical substance/The level of expressed mRNA in the absence of chemical substance", "setting": "yeast gene YKR058W, cells incubated two hours with the chemical substance, 25° C., YPD medium", "value": 1.6},
      {"measurement": "The level of expressed mRNA in the presence of chemical substance/The level of expressed mRNA in the absence of chemical substance", "setting": "yeast gene YKR097W", "value": 1.5},
      {"measurement": "The level of expressed mRNA in the presence of chemical substance/The level of expressed mRNA in the absence of chemical substance", "setting": "yeast gene YLL041C, cells incubated two hours with the chemical substance", "value": 1.7},
      {"measurement": "The level of expressed mRNA in the presence of chemical substance/The level of expressed mRNA in the absence of chemical substance", "setting": "yeast gene YLR038C, cells incubated two hours with the chemical substance", "value": 2.1},
      {"measurement": "The level of expressed mRNA in the presence of chemical substance/The level of expressed mRNA in the absence of chemical substance", "setting": "yeast gene YLR044C, cells incubated two hours with the chemical substance", "value": 0.9},
      {"measurement": "The level of expressed mRNA in the presence of chemical substance/The level of expressed mRNA in the absence of chemical substance", "setting": "yeast gene YLR134W, cells incubated two hours with the chemical substance", "value": 0.8},
      {"measurement": "The level of expressed mRNA in the presence of chemical substance/The level of expressed mRNA in the absence of chemical substance", "setting": "yeast gene YLR258W, cells incubated two hours with the chemical substance", "value": 2.0},
      {"measurement": "The level of expressed mRNA in the presence of chemical substance/The level of expressed mRNA in the absence of chemical substance", "setting": "yeast gene YLR284C, cells incubated two hours with the chemical substance", "value": 8.1},
      {"measurement": "The level of expressed mRNA in the presence of chemical substance/The level of expressed mRNA in the absence of chemical substance", "setting": "yeast gene YLR295C, cells incubated two hours with the chemical substance, 25° C., YPD medium", "value": 1.5},
      {"measurement": "The level of expressed mRNA in the presence of chemical substance/The level of expressed mRNA in the absence of chemical substance", "setting": "yeast gene YLR304C, cells incubated two hours with the chemical substance", "value": 0.7},
      {"measurement": "The level of expressed mRNA in the presence of chemical substance/The level of expressed mRNA in the absence of chemical substance", "setting": "yeast gene YLR345W", "value": 1.4},
      {"measurement": "The level of expressed mRNA in the presence of chemical substance/The level of expressed mRNA in the absence of chemical substance", "setting": "yeast gene YLR354C, cells incubated two hours with the chemical substance", "value": 1.5},
      {"measurement": "The level of expressed mRNA in the presence of chemical substance/The level of expressed mRNA in the absence of chemical substance", "setting": "yeast gene YLR377C, cells incubated two hours with the chemical substance", "value": 1.4},
      {"measurement": "The level of expressed mRNA in the presence of chemical substance/The level of expressed mRNA in the absence of chemical substance", "setting": "yeast gene YLR395C, cells incubated two hours with the chemical substance", "value": 2.3},
      {"measurement": "The level of expressed mRNA in the presence of chemical substance/The level of expressed mRNA in the absence of chemical substance", "setting": "yeast gene YML087C", "value": 0.8},
      {"measurement": "The level of expressed mRNA in the presence of chemical substance/The level of expressed mRNA in the absence of chemical substance", "setting": "yeast gene YML120C, cells incubated two hours with the chemical substance", "value": 1.6},
      {"measurement": "The level of expressed mRNA in the presence of chemical substance/The level of expressed mRNA in the absence of chemical substance", "setting": "yeast gene YML129C, cells incubated two hours with the chemical substance", "value": 1.3},
      {"measurement": "The level of expressed mRNA in the presence of chemical substance/The level of expressed mRNA in the absence of chemical substance", "setting": "yeast gene YMR073C, cells incubated two hours with the chemical substance", "value": 1.2},
      {"measurement": "The level of expressed mRNA in the presence of chemical substance/The level of expressed mRNA in the absence of chemical substance", "setting": "yeast gene YMR118C", "value": 1.0},
      {"measurement": "The level of expressed mRNA in the presence of chemical substance/The level of expressed mRNA in the absence of chemical substance", "setting": "yeast gene YMR205C, cells incubated two hours with the chemical substance", "value": 0.5},
      {"measurement": "The level of expressed mRNA in the presence of chemical substance/The level of expressed mRNA in the absence of chemical substance", "setting": "yeast gene YMR261C, cells incubated two hours with the chemical substance", "value": 1.1},
      {"measurement": "The level of expressed mRNA in the presence of chemical substance/The level of expressed mRNA in the absence of chemical substance", "setting": "yeast gene YMR267W, cells incubated two hours with the chemical substance, 25° C., YPD medium", "value": 1.3},
      {"measurement": "The level of expressed mRNA in the presence of chemical substance/The level of expressed mRNA in the absence of chemical substance", "setting": "yeast gene YMR323W, cells incubated two hours with the chemical substance", "value": 0.6},
      {"measurement": "The level of expressed mRNA in the presence of chemical substance/The level of expressed mRNA in the absence of chemical substance", "setting": "yeast gene YNL071W", "value": 1.2},
      {"measurement": "The level of expressed mRNA in the presence of chemical substance/The level of expressed mRNA in the absence of chemical substance", "setting": "yeast gene YNL202W, cells incubated two hours with the chemical substance", "value": 3.3},
      {"measurement": "The level of expressed mRNA in the presence of chemical substance/The level of expressed mRNA in the absence of chemical substance", "setting": "yeast gene YNL241C", "value": 1.0},
      {"measurement": "The level of expressed mRNA in the presence of chemical substance/The level of expressed mRNA in the absence of chemical substance", "setting": "yeast gene YNL331C", "value": 1.3},
      {"measurement": "The level of expressed mRNA in the presence of chemical substance/The level of expressed mRNA in the absence of chemical substance", "setting": "yeast gene YOL086C, cells incubated two hours with the chemical substance", "value": 1.3},
      {"measurement": "The level of expressed mRNA in the presence of chemical substance/The level of expressed mRNA in the absence of chemical substance", "setting": "yeast gene YOL165C", "value": 1.0},
      {"measurement": "The level of expressed mRNA in the presence of chemical substance/The level of expressed mRNA in the absence of chemical substance", "setting": "yeast gene YOR142W, cells incubated two hours with the chemical substance", "value": 1.0},
      {"measurement": "The level of expressed mRNA in the presence of chemical substance/The level of expressed mRNA in the absence of chemical substance", "setting": "yeast gene YOR178C, cells incubated two hours with the chemical substance", "value": 1.5},
      {"measurement": "The level of expressed mRNA in the presence of chemical substance/The level of expressed mRNA in the absence of chemical substance", "setting": "yeast gene YOR388C, cells incubated two hours with the chemical substance", "value": 0.9},
      {"measurement": "The level of expressed mRNA in the presence of chemical substance/The level of expressed mRNA in the absence of chemical substance", "setting": "yeast gene YPL031C, cells incubated two hours with the chemical substance", "value": 1.2},
      {"measurement": "The level of expressed mRNA in the presence of chemical substance/The level of expressed mRNA in the absence of chemical substance", "setting": "yeast gene YPL061W, cells incubated two hours with the chemical substance", "value": 2.6},
      {"measurement": "The level of expressed mRNA in the presence of chemical substance/The level of expressed mRNA in the absence of chemical substance", "setting": "yeast gene YPL088W", "value": 8.3},
      {"measurement": "The level of expressed mRNA in the presence of chemical substance/The level of expressed mRNA in the absence of chemical substance", "setting": "yeast gene YPL171C", "value": 1.5},
      {"measurement": "The level of expressed mRNA in the presence of chemical substance/The level of expressed mRNA in the absence of chemical substance", "setting": "yeast gene YPL240C", "value": 1.0},
      {"measurement": "The level of expressed mRNA in the presence of chemical substance/The level of expressed mRNA in the absence of chemical substance", "setting": "yeast gene YPL262W, cells incubated two hours with the chemical substance", "value": 1.2},
      {"measurement": "The level of expressed mRNA in the presence of chemical substance/The level of expressed mRNA in the absence of chemical substance", "setting": "yeast gene YPL275W, cells incubated two hours with the chemical substance", "value": 1.0},
      {"measurement": "The level of expressed mRNA in the presence of chemical substance/The level of expressed mRNA in the absence of chemical substance", "setting": "yeast gene YPL276W, cells incubated two hours with the chemical substance", "value": 0.8},
      {"measurement": "The level of expressed mRNA in the presence of chemical substance/The level of expressed mRNA in the absence of chemical substance", "setting": "yeast gene YPR048W, cells incubated two hours with the chemical substance", "value": 0.8},
      {"measurement": "The level of expressed mRNA in the presence of chemical substance/The level of expressed mRNA in the absence of chemical substance", "setting": "yeast gene YPR184W, cells incubated two hours with the chemical substance", "value": 1.7}
    ]}
  ]
}
